Experimental data as given in patent US20200377561A1, “ANTIMICROBIAL PEPTIDES AND METHODS OF TREATING GRAM-NEGATIVE PATHOGEN INFECTIONS: POLAR AND NON-POLAR FACE ANALOGS” (THE REGENTS OF THE UNIVERSITY OF COLORADO, a body corporate, priority 2017, published 2020).
Peptide text beside a SMILES is read from it.

Legend:
[1] = test system: Acinetobacter baumannii NCTC 13420; assay type: cell-based; conditions: NCTC 13420
Procedure: (§1) Bacterial strains were acquired from the American Type Culture Collection (ATCC, Virginia, USA) and the National Collection of Type Cultures (NCTC, Public Health England, Salisbury, UK). Minimum Inhibitory Concentration (MIC) of peptides versus gram-negative strains-Acinetobacter baumannii NCTC 13420, and Pseudomonas aeruginosa ATCC 27853 and gram-positive strain Staphylococcus aureus ATCC 29213, were determined by broth microdilution as per the guidelines of the Clinical and Laboratory Standards Institute (“Methods for Dilution Antimicrobial Susceptibility Tests for Bacteria That Grow Aerobically”; Approved Standard-Ninth Edition. CLSI document M07-A9, 2012). Peptides were dissolved in sterile distilled water, which was also used as the drug-free vehicle control when determining peptide MICs. Prior to use in the MIC protocol, bacterial strains were grown on Mueller Hinton agar at 37° C. in an ambient atmosphere. […] A fixed inoculum of the test microorganism (5×10^5 cells/mL) is also added to the plate. The MIC is determined as the lowest concentration of compound that inhibits visible bacterial growth following incubation at 37° C. for 16-20 hours. A difference in MIC of two-fold between experimental replicates is considered to be within the normal variability of this protocol.

[2] = test system: Pseudomonas aeruginosa ATCC 27853; assay type: cell-based; conditions: ATCC 27853
Procedure: as §1

Human erythrocytes = test: Haemolysis assay using human blood; assay type: cell-based; conditions: red cells of human, 1 h
Procedure: To determine the extent of haemolytic activity (the ability to lyse red blood cells) in test peptides, a haemolysis assay was conducted using human blood (BioIVT, West Sussex, UK). Human erythrocytes were exposed to a single fixed concentration or a range of concentrations as to determine the % haemolysis (fixed concentration) or the concentration at which 50% haemolysis occurred (HC50), respectively. Prior to the assay, whole human blood was repeatedly washed in phosphate buffered saline (PBS) under cooled conditions to remove the buffy coat, plasma and cell debris. Washed erythrocytes were diluted as to achieve 1×10^8 cells/mL in PBS. Prepared human erythrocyte samples were combined with peptide at a single fixed concentration of 128 μg/mL, or a range of concentrations (two-fold dilution series) from 1000-31.25 μg/mL. Positive and negative controls containing 2% (v/v) Triton X-100 and PBS alone, respectively, were also prepared. Samples were incubated at 37° C. for 1 hour and then centrifuged to collect intact erythrocytes. Haemoglobin release was determined by recording the optical density of the supernatant at 540 nm. Optical density values were transformed to a percentage of the positive control. Results were recorded as a percentage haemolysis at 128 μg/mL, or by plotting the percentage haemolysis versus concentration and extrapolating the HC50 using linear regression analysis (Table 2 above)
The therapeutic index is a widely-accepted parameter to represent the specificity of antimicrobial peptides for prokaryotic versus eukaryotic cells. It is calculated by the ratio of hemolytic activity and antimicrobial activity (MIC) (Table 2 above); thus, larger values of therapeutic index indicate greater specificity for prokaryotic cells. With the peptides used in this study the inventors used the HC50/MIC ratio value to calculate the therapeutic index.

[3] = Peptide hydrophobicity by RP-HPLC retention; assay type: physicochemical; conditions: for tR (relative hydrophobicity by RP-HPLC): Zorbax SB-300 C8, 0.25% B/min from 10% B, 0.3 ml/min, 30° C.; for ΔtR (Lys): retention time difference to the Lys13/Lys16 parent peptide
From the text: Retention behavior in RP-HPLC is an excellent method to represent overall peptide hydrophobicity. Retention times of peptides are highly sensitive to the conformational status of the peptides upon interaction with the hydrophobic environment of the column matrix^17,26. The non-polar faces of amphipathic alpha-helical and amphipathic cyclic beta-sheet peptides represent a preferred binding domain for interaction with the hydrophobic matrix of the reversed-phase column^27. In this study, the observed peptide hydrophobicity was determined by RP-HPLC retention time as described below and are relative hydrophobicities because they are dependent on the TFA concentration and organic solvent in the mobile phase, gradient rate, temperature, flow rate and the column used. Analytical Purification by Reversed-phase Chromatography: Analytical RP-HPLC: Column: Zorbax SB-300 C8 (150×2.1 mm ID; 5-μm particle size; 300 Å pore size). Conditions: linear AB gradient (0.25% B/min from 10% B) at a flow-rate of 0.3 ml/min, where Eluent A is 0.2% aq. TFA and Eluent B is 0.18% TFA in acetonitrile; 30° C.

Antimicrobial Activity MIC A. baumannii NCTC13420 [1] [mg/L] | P. aeruginosa ATCC27853 MIC [2] [mg/L] | tR (relative hydrophobicity by RP-HPLC) [3] [min] | ΔtR (Lys) [3] [min] | Compound | Haemolysis HC50 (Human erythrocytes) [µg/mL]
2 | 4 | 83.40 | 3.97 | CC(=O)N[C@H](CCCCN)C(=O)N[C@H](CC(C)C)C(=O)N[C@H](CCCCN)C(=O)N[C@H](CCCCN)C(=O)N[C@H](CC(C)C)C(=O)N[C@H](CC(C)C)C(=O)N[C@H](CCCCN)C(=O)N[C@H](CCCCN)C(=O)N[C@H](CC(C)C)C(=O)N[C@H](CO)C(=O)N[C@H](CO)C(=O)N[C@H](C)C(=O)N[C@H](CCN)C(=O)N[C@H](CO)C(=O)N[C@H](CO)C(=O)N[C@H](CCN)C(=O)N[C@H](CC(C)C)C(=O)N[C@H](CO)C(=O)N[C@@H](C(=O)N[C@H](CC(C)C)C(=O)N[C@H](CC(C)C)C(=O)N[C@H](CCCCN)C(=O)N[C@H](CCCCN)C(=O)N[C@H](CC(C)C)C(=O)N[C@H](CCCCN)C(=O)N[C@H](CCCCN)C(N)=O)[C@H](C)O [compound 15] (HELM PEPTIDE1{[ac].[dK].[dL].[dK].[dK].[dL].[dL].[dK].[dK].[dL].[dS].[dS].[dA].[NCC[C@@H](N[*:1])C(=O)[*:2]].[dS].[dS].[NCC[C@@H](N[*:1])C(=O)[*:2]].[dL].[dS].[dT].[dL].[dL].[dK].[dK].[dL].[dK].[dK].[am]}$$$$V2.0) | >1000
2 | 4 | 84.06 | 3.31 | CC(=O)N[C@H](CCCCN)C(=O)N[C@H](CC(C)C)C(=O)N[C@H](CCCCN)C(=O)N[C@H](CCCCN)C(=O)N[C@H](CC(C)C)C(=O)N[C@H](CC(C)C)C(=O)N[C@H](CCCCN)C(=O)N[C@H](CCCCN)C(=O)N[C@H](CC(C)C)C(=O)N[C@H](CO)C(=O)N[C@H](CO)C(=O)N[C@H](C)C(=O)N[C@H](CN)C(=O)N[C@H](CO)C(=O)N[C@H](CO)C(=O)N[C@H](CN)C(=O)N[C@H](CC(C)C)C(=O)N[C@H](CO)C(=O)N[C@@H](C(=O)N[C@H](CC(C)C)C(=O)N[C@H](CC(C)C)C(=O)N[C@H](CCCCN)C(=O)N[C@H](CCCCN)C(=O)N[C@H](CC(C)C)C(=O)N[C@H](CCCCN)C(=O)N[C@H](CCCCN)C(N)=O)[C@H](C)O [compound 16] (HELM PEPTIDE1{[ac].[dK].[dL].[dK].[dK].[dL].[dL].[dK].[dK].[dL].[dS].[dS].[dA].[NC[C@@H](N[*:1])C(=O)[*:2]].[dS].[dS].[NC[C@@H](N[*:1])C(=O)[*:2]].[dL].[dS].[dT].[dL].[dL].[dK].[dK].[dL].[dK].[dK].[am]}$$$$V2.0) | >1000
2 | 4 | 91.57 | 2.94 | CC(=O)N[C@H](C)C(=O)N[C@H](CC(C)C)C(=O)N[C@H](CCCCN)C(=O)N[C@H](CCCCN)C(=O)N[C@H](CC(C)C)C(=O)N[C@H](CC(C)C)C(=O)N[C@H](CCCCN)C(=O)N[C@H](CCCCN)C(=O)N[C@H](CC(C)C)C(=O)N[C@H](CO)C(=O)N[C@H](CO)C(=O)N[C@H](C)C(=O)N[C@H](CCN)C(=O)N[C@H](CO)C(=O)N[C@H](CO)C(=O)N[C@H](CCN)C(=O)N[C@H](CC(C)C)C(=O)N[C@H](CO)C(=O)N[C@@H](C(=O)N[C@H](CC(C)C)C(=O)N[C@H](CC(C)C)C(=O)N[C@H](CCCCN)C(=O)N[C@H](CCCCN)C(=O)N[C@H](CC(C)C)C(=O)N[C@H](CCCCN)C(=O)N[C@H](CCCCN)C(N)=O)[C@H](C)O [compound 20] (HELM PEPTIDE1{[ac].[dA].[dL].[dK].[dK].[dL].[dL].[dK].[dK].[dL].[dS].[dS].[dA].[NCC[C@@H](N[*:1])C(=O)[*:2]].[dS].[dS].[NCC[C@@H](N[*:1])C(=O)[*:2]].[dL].[dS].[dT].[dL].[dL].[dK].[dK].[dL].[dK].[dK].[am]}$$$$V2.0) | >1000

Second part, the molecule before the results:

Compound | Antimicrobial Activity MIC A. baumannii NCTC13420 [1] [mg/L] | P. aeruginosa ATCC27853 MIC [2] [mg/L] | tR (relative hydrophobicity by RP-HPLC) [3] [min] | ΔtR (Lys) [3] [min] | Haemolysis HC50 (Human erythrocytes) [µg/mL]
CC(=O)N[C@H](C)C(=O)N[C@H](CC(C)C)C(=O)N[C@H](CCCCN)C(=O)N[C@H](CCCCN)C(=O)N[C@H](CC(C)C)C(=O)N[C@H](CC(C)C)C(=O)N[C@H](CCCCN)C(=O)N[C@H](CCCCN)C(=O)N[C@H](CC(C)C)C(=O)N[C@H](CO)C(=O)N[C@H](CO)C(=O)N[C@H](C)C(=O)N[C@H](CCCN)C(=O)N[C@H](CO)C(=O)N[C@H](CO)C(=O)N[C@H](CCCN)C(=O)N[C@H](CC(C)C)C(=O)N[C@H](CO)C(=O)N[C@@H](C(=O)N[C@H](CC(C)C)C(=O)N[C@H](CC(C)C)C(=O)N[C@H](CCCCN)C(=O)N[C@H](CCCCN)C(=O)N[C@H](CC(C)C)C(=O)N[C@H](CCCCN)C(=O)N[C@H](CCCCN)C(N)=O)[C@H](C)O [compound 19] (HELM PEPTIDE1{[ac].[dA].[dL].[dK].[dK].[dL].[dL].[dK].[dK].[dL].[dS].[dS].[dA].[NCCC[C@@H](N[*:1])C(=O)[*:2]].[dS].[dS].[NCCC[C@@H](N[*:1])C(=O)[*:2]].[dL].[dS].[dT].[dL].[dL].[dK].[dK].[dL].[dK].[dK].[am]}$$$$V2.0) | 2 | 4 | 91.57 | 2.94 | >1000
CC(=O)N[C@H](C)C(=O)N[C@H](CC(C)C)C(=O)N[C@H](CCCCN)C(=O)N[C@H](CCCCN)C(=O)N[C@H](CC(C)C)C(=O)N[C@H](CC(C)C)C(=O)N[C@H](CCCCN)C(=O)N[C@H](CCCCN)C(=O)N[C@H](CC(C)C)C(=O)N[C@H](CO)C(=O)N[C@H](CO)C(=O)N[C@H](C)C(=O)N[C@H](CN)C(=O)N[C@H](CO)C(=O)N[C@H](CO)C(=O)N[C@H](CN)C(=O)N[C@H](CC(C)C)C(=O)N[C@H](CO)C(=O)N[C@@H](C(=O)N[C@H](CC(C)C)C(=O)N[C@H](CC(C)C)C(=O)N[C@H](CCCCN)C(=O)N[C@H](CCCCN)C(=O)N[C@H](CC(C)C)C(=O)N[C@H](CCCCN)C(=O)N[C@H](CCCCN)C(N)=O)[C@H](C)O [compound 21] (HELM PEPTIDE1{[ac].[dA].[dL].[dK].[dK].[dL].[dL].[dK].[dK].[dL].[dS].[dS].[dA].[NC[C@@H](N[*:1])C(=O)[*:2]].[dS].[dS].[NC[C@@H](N[*:1])C(=O)[*:2]].[dL].[dS].[dT].[dL].[dL].[dK].[dK].[dL].[dK].[dK].[am]}$$$$V2.0) | 2 | 4 | 94.92 | 0.41 | >1000
